Results published in patent US11071488B2, “Method for determining the likelihood of torsades de pointes being induced” (ASSISTANCE PUBLIQUE—HOPITAUX DE PARIS, priority 2016, dated 2021).
Where two headings read alike, the source gives them in different places.

How the values were obtained:
IKr channel [1] = target: T1, IKr channel (Homo sapiens, UniProt Q12809); conditions: for double peaks (notches) three hours after taking sotalol: 80 mg sotalol
Experimental: The QTcF, TAmp and TpTe were measured according to the same protocol as for example 1, before and three hours after administration of a single oral dose of sotalol at 80 mg.
The ΔQTcF, ΔTpTe and ΔTAmp were also calculated.

IKr potassium channel = IKr potassium channel (Homo sapiens, UniProt Q12809); conditions: cited from earlier work
IKr channel [2] = target: T1, IKr channel; assay: ECG changes three hours after a single oral dose of 80 mg sotalol (GENEREPOL cohort, Example 1); type: in vivo; parameters: from tissue; host or cells: heart (ventricular myocardium) of living human volunteers; surface ECG read-out; conditions: H3
Experimental: The cohort of patients was that of the GENEREPOL study, and consisted of 995 volunteers in good health, from 18 to 60 years old, of European or North African origin. The objective of this study was to identify genetic predispositions linked to the inhibition of the IKr channel after administration of 80 mg sotalol, with a body mass index between 19 and 29 kg/m^2, informed consent having been received. […]
An intravenous catheter was inserted for taking blood samples. The ECG of the patients was then recorded using the Cardioplug device (Cardionics Inc®, Brussels, Belgium) connected to a laptop computer. […] Three hours after sotalol had been taken ([…]), the ECG was again recorded (in triplicate) after the subjects had remained lying on their back for 10 minutes and before lunch. […]
The QTcF, TpTe and TAmp and the presence of notches (double peak) in the T wave were quantified. […]
The quantitative analysis of the QTcF, TpTe and TAmp was carried out by two trained investigators, in order to limit the inter-evaluator variability.
TpTe was measured by the tangent method, in triplicate, on a representative beat (average representation of an ECG of 10 seconds) on the V3, V4 and V5 leads. […]
QTcF was measured by the tangent method on the DII lead for three consecutive beats and the average value of an evaluation in triplicate was retained. […]

Sequence of IKr potassium channel (Q12809 whole entry): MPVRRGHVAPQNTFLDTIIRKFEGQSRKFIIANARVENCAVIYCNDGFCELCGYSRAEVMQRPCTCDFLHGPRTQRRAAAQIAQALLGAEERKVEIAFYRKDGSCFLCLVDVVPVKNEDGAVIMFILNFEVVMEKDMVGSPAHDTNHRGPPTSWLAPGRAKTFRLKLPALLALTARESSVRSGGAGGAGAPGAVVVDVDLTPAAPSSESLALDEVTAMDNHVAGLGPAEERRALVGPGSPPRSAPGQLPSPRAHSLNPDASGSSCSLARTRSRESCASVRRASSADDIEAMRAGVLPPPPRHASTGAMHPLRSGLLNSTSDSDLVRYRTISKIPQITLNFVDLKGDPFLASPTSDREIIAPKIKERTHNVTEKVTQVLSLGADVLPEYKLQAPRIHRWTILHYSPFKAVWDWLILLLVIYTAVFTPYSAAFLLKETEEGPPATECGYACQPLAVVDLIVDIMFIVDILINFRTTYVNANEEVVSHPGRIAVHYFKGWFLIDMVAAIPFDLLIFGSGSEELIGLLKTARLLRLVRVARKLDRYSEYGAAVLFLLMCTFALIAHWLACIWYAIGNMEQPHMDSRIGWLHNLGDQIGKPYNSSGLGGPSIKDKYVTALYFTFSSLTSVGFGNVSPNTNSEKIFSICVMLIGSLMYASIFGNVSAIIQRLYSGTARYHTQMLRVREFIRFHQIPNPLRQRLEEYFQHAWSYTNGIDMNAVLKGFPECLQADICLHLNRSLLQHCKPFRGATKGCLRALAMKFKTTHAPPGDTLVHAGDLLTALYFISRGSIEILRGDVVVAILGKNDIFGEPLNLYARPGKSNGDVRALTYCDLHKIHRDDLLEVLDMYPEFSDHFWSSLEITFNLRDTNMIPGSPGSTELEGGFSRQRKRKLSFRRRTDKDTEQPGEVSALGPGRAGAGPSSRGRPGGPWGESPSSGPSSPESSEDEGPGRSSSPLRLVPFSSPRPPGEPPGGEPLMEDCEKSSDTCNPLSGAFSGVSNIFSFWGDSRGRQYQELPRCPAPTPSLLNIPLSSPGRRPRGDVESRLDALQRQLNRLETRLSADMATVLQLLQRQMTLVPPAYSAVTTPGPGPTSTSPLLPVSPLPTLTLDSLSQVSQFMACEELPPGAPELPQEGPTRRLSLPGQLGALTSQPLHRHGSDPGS
T1 sequence (Q12809 whole entry): as above

C[C@]12CCC(=O)C=C1[C@@H]1C[C@@H]1[C@H]1[C@@H]3[C@@H]4C[C@@H]4[C@@]4(CCC(=O)O4)[C@@]3(C)CC[C@@H]12 [drospirenone]
double peaks (notches) three hours after taking sotalol (IKr channel [1]; women taking drospirenone): 25.8%

CC(C)NCC(O)c1ccc(NS(C)(=O)=O)cc1 (stereo not drawn) [sotalol]
risk of induction of torsades de pointes (IKr potassium channel; dose-dependent): up to 7 % of patients treated
increase in QT/QTc (IKr potassium channel; sotalol at 80 mg): approximately 20 ms
induction of an episode of torsade de pointes (IKr potassium channel; sotalol at 80 mg): does not induce an episode of torsade de pointes
time of maximum concentration after oral intake (IKr potassium channel; taken orally): approximately 3 hours
subjects exhibiting a double peak (notch) (IKr channel [2]; first (exploration) cohort, 40 subjects): 8%
subjects exhibiting a double peak (notch) (IKr channel [2]; second (replication) cohort, 51 subjects): 10%
double peaks (notches) three hours after taking sotalol (IKr channel [1]; women not taking an oral contraceptive): 13.4%
plasma sotalol concentration (IKr channel [1]; women taking drospirenone vs women with no contraception): No difference
